Where a name gives a salt, the structure may show the parent alone.
Experiments:
[1] = molecular target: T1, Chk1 (Homo sapiens, UniProt O14757); assay: Chk1 autophosphorylation cell based assay (phospho-Chk1 serine 296 immunoblot, doxorubicin-treated HeLa cells); design: endogenous in cells; host or cells: HeLa; conditions: 100 nM doxorubicin, 2 h compound, read-out: EC50 (inhibition of doxorubicin induced Chk1 autophosphorylation)
T1 sequence (O14757 1-476): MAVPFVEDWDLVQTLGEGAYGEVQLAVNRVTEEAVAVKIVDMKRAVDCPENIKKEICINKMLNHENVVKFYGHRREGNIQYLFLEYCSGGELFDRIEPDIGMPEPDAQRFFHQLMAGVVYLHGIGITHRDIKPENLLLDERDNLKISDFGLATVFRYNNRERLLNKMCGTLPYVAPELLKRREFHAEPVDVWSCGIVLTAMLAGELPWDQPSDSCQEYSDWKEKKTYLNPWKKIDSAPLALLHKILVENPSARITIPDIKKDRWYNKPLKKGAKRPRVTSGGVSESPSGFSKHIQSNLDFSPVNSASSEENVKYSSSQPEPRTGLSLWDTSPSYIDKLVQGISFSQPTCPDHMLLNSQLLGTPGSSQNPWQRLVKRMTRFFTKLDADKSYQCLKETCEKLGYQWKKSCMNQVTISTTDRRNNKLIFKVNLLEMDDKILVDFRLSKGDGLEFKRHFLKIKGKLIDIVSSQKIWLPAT
Protocol: An inhibitor of Chk1 will prevent the kinase activity of the protein from phosphorylating substrates in cells in which the DNA damage response has been activated. An easily detectable substrate for Chk1 is an autophosphorylation site on Chk1 itself, serine 296. The following immunoblot assay can be used to measure the amount of phosphorylation of serine 296 on Chk1 and indirectly the activity level of the Chk1 protein kinase, HeLa cells are cultured in MEM w/Earle's Balanced Salt Solution with L-glutamine supplemented with 10% (v/v) heat inactivated fetal bovine serum, 1×MEM non-essential amino acids, 1× sodium pyruvate and 1×10^5 cells plated in 600 μL of MEM culture media per well of a […] cell culture plate. Cells are incubated for 24 h at 37° C., 5% CO2 and […]. Sixteen μL of a 4 μM stock of doxorubicin in culture media are added to each appropriate well to make a final concentration of 100 nM doxombicin. Plates are returned to the incubator for 24 additional hours prior to Chk1 inhibitor compound addition. […] Antigen-antibody-reporter conjugates immobilized on the membrane are detected with the Super Signal Western Femto HRP-detection reagent using a FUJI LAS-4000 imaging system. Phospho-Chk1 (ser296) band intensities are calculated using “Total Lab” software (Nonlinear Dynamics). […]

[2] = test system: Calu-6 lung tumor xenograft; assay: Calu-6 tumor xenograft model, subcutaneous administration of Chk1 inhibitor; format: in vivo, nude mice
Protocol: (§1) The ability of Chk1 inhibitors to potentiate tumor killing by DNA damaging agents can be determined in vivo using the Calu-6 lung and HT-29 colon tumor xenograft efficacy models. Calu-6 lung cancer cells are cultured in growth media (MEM with Earle's Balanced Salt Solution with L-glutamine supplemented with 10% (v/v) heat inactivated FBS, 1×MEM non-essential amino acids, 1× sodium pyruvate) and HT-29 colon cancer cells (ATCC) are cultured in growth media, (McCoy's 5A medium supplemented with 10% FBS) and expanded.
(§2) Cells are harvested and washed twice with phosphate buffered saline and 5×10^6 cells (HT-29) or 1×10^6 a cells (Calu-6) in growth media (without serum) are mixed with equal volume of BD Matrigel™ matrix, then injected subcutaneously into the flank of nude mice (CD-1 nu/nu).
(§3) At about day 16 after implant ([…]), gemcitabine is formulated fresh in saline daily and administered to animals by intraperitoneal route at 60 mg/kg dose. Twenty four hours later animals are administered the compound of Example 3, in 0.2% Tween-80/0.5% methylcellulose subcutaneously BID. After […], dosing is repeated for three additional cycles (Q4Dx4 with the compound of Example 3 offset+24 hours), Tumor growth inhibition (TGI) is calculated as the percent reduction in mean tumor size of a compound treated group from the mean tumor size of the vehicle-treated control group. Compounds within the scope of the invention are tested in this assay run substantially as above.

[3] = test system: HT-29 colon tumor xenograft; assay: HT-29 tumor xenograft model, subcutaneous administration of Chk1 inhibitor; format: in vivo, nude mice
Protocol: as §1, §2, §3

Compound	EC50 [1]	% TGI at day 47 ([2]; Calu 6, Example 3 40 mpk subcutaneous BID alone)	anti-tumor activity in combination with gemcitabine ([2]; Calu-6 xenograft, subcutaneous BID, gemcitabine 60 mg/kg ip)	% TGI at day 38 ([3]; HT29, Example 3 40 mpk subcutaneous BID alone)	anti-tumor activity in combination with gemcitabine ([3]; HT-29 xenograft, subcutaneous BID, gemcitabine 60 mg/kg ip)	increase in tumor growth inhibition over gemcitabine alone ([3]; subcutaneous, stated for HT-29 and Calu-6 models together)
COc1nc(C)ccc1-c1cc(Nc2cncc(O[C@@H]3CCCNC3)n2)[nH]n1 [Example 1, (R)-[5-(2-Methoxy-6-methyl-pyridin-3-yl)-2H-pyrazol-3-yl]-[6-(piperidin-3-yloxy)-pyrazin-2-yl]-amine]	< 1 nM					
COc1nc(C)ccc1-c1cc(Nc2cncc(O[C@@H]3CCCNC3)n2)[nH]n1 [Example 3, (R)-[5-(2-Methoxy-6-methyl-pyridin-3-yl)-2H-pyrazol-3-yl]-[6-(piperidin-3-yloxy)-pyrazin-2-yl]-amine acetic acid salt]		−19%	excellent dose dependent anti-tumor activity	26%	excellent dose dependent anti-tumor activity	up to a six-fold increase in tumor growth inhibition over gemcitabine alone
